Laboratory results published in patent US8557784B2, “Glycyrrhizinates of morphinan derivatives” (Standard Chem. & Pharm. Co., Ltd., priority 2011, dated 2013).
Structures can show the parent of a compound that is named as a salt.

Tests used:
[1] = Solubility in water: water added by degrees until 0.1 g of compound fully dissolves; details: for Water quantity for dissolving 0.1 g solute: 28° C.
e-NOS = e-NOS expression in Wistar rat pulmonary artery (Western blot); format: cell-based; details: rat pulmonary artery incubated 2 hours with 0.01 mg/ml (10^-5 M); actin as internal control; FIG. 1
Description: The e-NOS expression of dextromethorphan glycyrrhizinate and dimemorfan glycyrrhizinate are carried out via the following procedures.
The blank control group were not added with dextromethorphan glycyrrhizinate or dimemorfan glycyrrhizinate. After incubated for 2 hours, the pulmonary artery were lysed in ice-cold homogenization buffer. The homogenates were centrifuged at 13,000 rpm for 10 minutes at 4° C. The protein concentration was determined by the method of Bradford. Samples were denatured and subjected to sodium dodecylsulfate polyacrylamide gel electrophoresis (SDS-PAGE) using a 7.5% running gel. Protein were transferred to polyvinylidene difluoride (PVDF) membrane, and the PVDF membrane was incubated successively at room temperature with 5% nonfat milk-0.1% Tween-Tris buffered saline for 1 hour, with rabbit antibodies specific for anti-eNOS for 1 hour, and with horseradish peroxidase conjugated anti-rabbit IgG antibodies (HRP-conjugated anti-rabbit IgG Ab) for 1 hour. After each incubation, the membrane was washed extensively with 0.1% Tween-Tris buffered saline. The immunoreactive bands were detected by ECL reagents.
The expressions of actins are also tested at the same time to be the internal control and are depicted in the middle panel of FIG. 1.

[2] = in words; cited from earlier work

Compound	Solubility (28° C.) [1] [%]	Water quantity for dissolving 0.1 g solute [1] [mL]	e-NOS expression (e-NOS)	Solubility in water [2]
Dimemorfan phosphate	2.5	4	–	–
dextromethorphan glycyrrhizinate	–	–	good e-NOS expression	–
COc1ccc2c(c1)[C@]13CCCC[C@@H]1[C@H](C2)N(C)CC3 [dextromethorphan]	–	–	–	water insoluble
COc1ccc2c(c1)[C@]13CCCC[C@@H]1[C@H](C2)N(C)CC3 [Dextromethorphan hydrobromide]	2.5	–	–	–
dimemorfan glycyrrhizinate	0.05	200	good e-NOS expression	–
